In ChEMBL document CHEMBL4622875, “(3,3″)-Linked Biflavanones from Ouratea spectabilis and Their Effects on the Release of Proinflammatory Cytokines in THP-1 Cells” (J Nat Prod, 2020):
Calls of active or inactive are those of the source. The rule behind the calls is not given here.

Experiments:
[1] = Cytotoxicity against human THP1 cells assessed as cell viability at 10 to 90 uM incubated for 18 hrs by sulforhodamine B assay relative to control; format: cell-based; details: THP-1 cells, read-out: Activity
THP-1 [2] = assay: Antiinflammatory activity in human THP1 cells assessed as reduction in LPS-induced TNF secretion at 10 to 90 uM preincubated for 3 hrs followed by LPS stimulation and measured after 18 hrs by ELISA; format: functional, cell-based
THP-1 [3] = assay: Antiinflammatory activity in human THP1 cells assessed as reduction in LPS-induced IL-1beta secretion at 10 to 90 uM preincubated for 3 hrs followed by LPS stimulation and measured after 18 hrs by ELISA; format: functional, cell-based
THP-1 [4] = assay: Antiinflammatory activity in human THP1 cells assessed as reduction in LPS-induced CCL2 secretion preincubated for 3 hrs followed by LPS stimulation and measured after 18 hrs by ELISA; format: functional, cell-based

Row | SMILES | viability at 18 h, up to 90 µM [1] [%] | Activity (THP-1 [2]) | Activity (THP-1 [3]) | IC50 (THP-1 [4]) [µM]
1 | COc1cc(O)c2c(c1)O[C@H](c1ccc(O)cc1)[C@H]([C@@H]1C(=O)c3c(O)cc(OC)cc3O[C@@H]1c1ccc(O)cc1)C2=O | > 90 | inactive | inactive | 
2 | O=C1c2c(O)cc(O)cc2O[C@H](c2ccc(O)cc2)[C@@H]1[C@@H]1C(=O)c2c(O)cc(O)cc2O[C@@H]1c1ccc(O)cc1 [NEOCHAMAEJASMIN A] | > 90 | inactive | inactive | 
3 | COc1cc(O)c2c(c1)O[C@H](c1ccc(O)cc1)[C@@H]([C@H]1C(=O)c3c(O)cc(O)cc3O[C@@H]1c1ccc(O)cc1)C2=O | > 90 | inactive | inactive | 
4 | COc1cc(O)c2c(c1)O[C@H](c1ccc(O)cc1)[C@@H]([C@H]1C(=O)c3c(O)cc(OC)cc3O[C@@H]1c1ccc(O)cc1)C2=O | > 90 | inactive | inactive | 3.1
